Data on ten compounds can be found in patent US20250084041A1, “ANTIMICROBIAL COMPOUNDS AND METHODS” (Curza Global, LLC, priority 2021, published 2025).

Each structure is given as a SMILES string. Where a name gives a salt, the structure may show the parent alone. Read-outs that look alike come from different tables or passages of the source.

One assay has as its system P. aeruginosa (Pa). The assay can be described thus: Broth microdilution MIC, P. aeruginosa. In kind it is cell-based. The following applies: Pseudomonas aeruginosa, read-out: Pa + bicarb 25 (MIC). Put shortly:
(§1)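 MIC values come from a slightly modified CLSI broth microdilution, with eight two-fold compound dilutions tested in triplicate and 5×10^4 CFU/well. Growth medium was cation-adjusted Mueller-Hinton broth, alone or with 25 mM sodium bicarbonate or 0-50% heat-inactivated human serum.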

For another assay, the system named is A. baumannii (Ab). The experiment in a line: Broth microdilution MIC, A. baumannii. In kind it is cell-based. Conditions: Acinetobacter baumannii, read-out: Ab + bicarb 25 (MIC). Put shortly:
as §1

The next assay has as its system E. coli S30 extract. The experiment in a line: E. coli S30 extract: inhibition of bacterial protein synthesis (luciferase). In kind it is biochemical. The following applies: 37° C. 1 hour. Put shortly: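 Coupled transcription-translation in E. coli S30 extract, programmed with pBESTluc plasmid, was run with 8-point 2-fold compound dilutions for 1 h at 37 °C. After a cold stop, luciferase luminescence was read and percent inhibition calculated against no-inhibitor controls.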

The next assay concerns E. coli (Ec). The assay can be described thus: Broth microdilution MIC, E. coli. In kind it is cell-based. Conditions: Escherichia coli, read-out: E. coli + bicarb 25 (MIC). As for the experimental part:
A certified BSL-2 laboratory was used for testing. Compounds were evaluated using the broth microdilution minimum inhibitory concentration (MIC) and minimum bactericidal concentration (MBC) assays defined by Clinical and Laboratory Standards Institute (CLSI) in the M26-A guideline against S. aureus (Sa), E. coli (Ec), K. pneumoniae (Kp), A. baumannii (Ab), E. faecalis (Ef) and P. aeruginosa (Pa).
MICs were determined using the Clinical Laboratory and Standards Institute (CLSI) Broth Microdilution Method with slight modification. Clinical and Laboratory Standards Institute (2012). “Methods for dilution antimicrobial susceptibility tests for bacteria that grow aerobically; approved standard, 9th ed. M07-A9. Clinical and Laboratory Standards Institute, Wayne, PA.” Serial two-fold dilutions of compounds are prepared in sterile clear round-bottom 96-well plates.
To prepare microdilution trays, two-fold dilutions of antimicrobial agent are prepared in growth medium: Cation-Adjusted Mueller-Hinton Broth (CAMHB), or CAMHB supplemented with sodium bicarbonate (25 mM final concentration prepared from a 1.0 M stock solution) or CAMHB supplemented with heat inactivated human serum (Fisher Cat. #BP2657100) 0-50% by adding 200 μL of the highest concentration to be tested (64 μg/mL, for example) in row A, mixing and transferring 100 μL from row A to 100 μL growth medium in row B, then repeating the mixing and transferring through row H of the 96-well plate, discarding the excess 100 μL remaining. This slight modification to the CLSI protocol enables evaluation of MICs for 3 compounds per plate in triplicate, albeit with only 8 compound dilutions (CLSI protocol enables 2 compounds in triplicate with 10 dilutions). Bacterial suspensions are added to a final concentration of 5×10^4 CFU/well by adding 5 μL of a 1:10 dilution of a 0.5 McFarland suspension (1×10^8 CFU/mL) for each bacterium evaluated. Bacterial suspensions were prepared using the growth method described by CLSI. Well-isolated colonies (3-5 from an agar plate) were selected using a sterile loop and used to inoculate a tube containing 4 mL of CAMHB. The cultures are incubated at 35±2° C. until it achieves or exceeds the turbidity of the 0.5 McFarland standard, determined by measuring A600nm (usually two to six hours). When growth exceeds a 0.5 McFarland standard, the turbidity is adjusted with broth to be equivalent to a 0.5 McFarland standard.

Assay [1] addresses Rabbit Reticulocyte Lysate. The assay can be described thus: Rabbit Reticulocyte Lysate: inhibition of eukaryotic protein synthesis (luciferase). In kind it is biochemical. The following applies: 30° C. 90 minutes, read-out: Retic. IC50. Put shortly: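 Nuclease-treated rabbit reticulocyte lysate translating luciferase control RNA with complete amino acids; compounds in 8-point 2-fold dilutions, 90 min at 30° C. Luminescence read after luciferase reagent; % inhibition versus water (no-inhibitor) control, no-RNA wells as background.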

The next assay concerns E. faecalis (Ef). The assay can be described thus: Broth microdilution MIC, E. faecalis. The format is cell-based. The following applies: Enterococcus faecalis, read-out: Ef + bicarb 25 (MIC). Put shortly:
as §1

In a further assay the test system is S. aureus (Sa). The assay can be described thus: Broth microdilution MIC, S. aureus. The format is cell-based. Conditions: Staphylococcus aureus, read-out: Sa + bicarb 25 (MIC). Put shortly:
as §1

In the case of `CC(C)(N)C(=O)N1CCN(C(=O)Nc2ccn(C3CCC(CN4CCC5(CC4)CC(N)C5)CC3)c(=O)n2)CC1` (stereo not shown) [Compound 16, 4-(2-Amino-2-methylpropanoyl)-N-(1-(4-((2-amino-7-azaspiro[3.5]nonan-7-yl)methyl)cyclohexyl)-2-oxo-1,2-dihydropyrimidin-4-yl)piperazine-1-carboxamide hydrochloride salt], the minimal inhibitory concentration (MIC) with P. aeruginosa (Pa) is 8 to 32 µg/mL; in the assay on A. baumannii (Ab), less than 8 µg/mL; with E. coli (Ec), less than 8 µg/mL; in the assay on E. faecalis (Ef), less than 8 µg/mL; with S. aureus (Sa) it was less than 8 µg/mL. Further, the IC50 is less than 500 nM in the assay on E. coli S30 extract and no less than 1000 nM in assay [1].

`CC(C)(N)C(=O)N1CCN(C(=O)Nc2ccn(C3=CCC(CN[C@H]4CC[C@H](N)CC4)CC3)c(=O)n2)CC1` (single isomer, unassigned) [Compound 39, trans-4-(2-Amino-2-methylpropanoyl)-N-(1-(4-(((4-aminocyclohexyl)amino)methyl)cyclohex-1-en-1-yl)-2-oxo-1,2-dihydropyrimidin-4-yl)piperazine-1-carboxamide hydrochloride salt]: the MIC in the assay with P. aeruginosa (Pa) is greater than 32 µg/mL; in the assay on A. baumannii (Ab), greater than 32 µg/mL; in the assay with E. coli (Ec), less than 8 µg/mL; in the assay on E. faecalis (Ef), less than 8 µg/mL; with S. aureus (Sa), less than 8 µg/mL. In addition, the IC50 with E. coli S30 extract was less than 500 nM; in assay [1], no less than 1000 nM.

Take `CC(C)(N)C(=O)N1CCN(C(=O)Nc2ccn(C3=CCC(CN4CCC5(CC4)CC(N)C5)CC3)c(=O)n2)CC1` (stereo not shown) [Compound 25, 4-(2-Amino-2-methylpropanoyl)-N-(1-(4-((2-amino-7-azaspiro[3.5]nonan-7-yl)methyl)cyclohexan-1-en-1-yl)-2-oxo-1,2-dihydropyrimidin-4-yl)piperazine-1-carboxamide hydrochloride salt]: the MIC was 8 to 32 µg/mL in the assay on P. aeruginosa (Pa); less than 8 µg/mL in the assay with A. baumannii (Ab); less than 8 µg/mL in the assay with E. coli (Ec); less than 8 µg/mL with E. faecalis (Ef); less than 8 µg/mL in the assay on S. aureus (Sa). The IC50 was less than 500 nM in the assay on E. coli S30 extract and no less than 1000 nM in assay [1].

Turning to `CC1(N)CCN(CC2CC=C(n3ccc(NC(=O)N4CCN(C(=O)C(C)(C)N)CC4)nc3=O)CC2)CC1` (single isomer, unassigned) [Compound 37, 4-(2-Amino-2-methylpropanoyl)-N-(1-(4-((4-amino-4-methylpiperidin-1-yl)methyl)cyclohex-1-en-1-yl)-2-oxo-1,2-dihydropyrimidin-4-yl)piperazine-1-carboxamide hydrochloride salt], the MIC with P. aeruginosa (Pa) is greater than 32 µg/mL; in the assay with A. baumannii (Ab), greater than 32 µg/mL; with E. coli (Ec) it was less than 8 µg/mL; with E. faecalis (Ef), less than 8 µg/mL; with S. aureus (Sa), less than 8 µg/mL. Also, the IC50 in the assay with E. coli S30 extract was less than 500 nM; in assay [1], no less than 1000 nM.

As for `CC(C)(N)C(=O)N1CCN(C(=O)Nc2ccn(C3CCC(CN4CCCC(N)CC4)CC3)c(=O)n2)CC1` (stereo not shown) [Compound 9, 4-(2-Amino-2-methylpropanoyl)-N-(1-(4-((4-aminoazepan-1-yl)methyl)cyclohexyl)-2-oxo-1,2-dihydropyrimidin-4-yl)piperazine-1-carboxamide hydrochloride salt], the MIC in the assay on P. aeruginosa (Pa) is greater than 32 µg/mL; with A. baumannii (Ab), 8 to 32 µg/mL; in the assay on E. coli (Ec) it was less than 8 µg/mL; in the assay on E. faecalis (Ef) it was less than 8 µg/mL; in the assay on S. aureus (Sa), less than 8 µg/mL. Besides, the half-maximal inhibitory concentration (IC50) in the assay on E. coli S30 extract was less than 500 nM; in assay [1], no less than 1000 nM.

For the compound `CC(C)(N)C(=O)N1CCN(C(=O)Nc2ccn([C@H]3CC[C@H](CN[C@H]4CC[C@H](N)CC4)CC3)c(=O)n2)CC1` [Compound 18, 4-(2-Amino-2-methylpropanoyl)-N-(1-(trans-4-(((trans-4-aminocyclohexyl)amino)methyl)cyclohexyl)-2-oxo-1,2-dihydropyrimidin-4-yl)piperazine-1-carboxamide hydrochloride salt], the MIC was greater than 32 µg/mL in the assay on P. aeruginosa (Pa); greater than 32 µg/mL with A. baumannii (Ab); less than 8 µg/mL with E. coli (Ec); 8 to 32 µg/mL in the assay on E. faecalis (Ef); less than 8 µg/mL in the assay on S. aureus (Sa). The results for the IC50 (with E. coli S30 extract; in assay [1]) were less than 500 nM and no less than 1000 nM, respectively.

Regarding `CC(C)(N)C(=O)N1CCN(C(=O)Nc2ccn(C3=CCC(CN4C[C@@H]5[C@@H](CN)[C@@H]5C4)CC3)c(=O)n2)CC1` (stereo partly drawn) [Compound 2, 4-(2-Amino-2-methylpropanoyl)-N-(1-(4-((exo-6-(aminomethyl)-3-azabicyclo[3.1.0]hexan-3-yl)methyl)cyclohex-1-en-1-yl)-2-oxo-1,2-dihydropyrimidin-4-yl)piperazine-1-carboxamide hydrochloride salt], the MIC with P. aeruginosa (Pa) (P. aeruginosa, CAMHB supplemented with sodium bicarbonate 25 mM) is greater than 32 µg/mL; with A. baumannii (Ab) (A. baumannii, CAMHB supplemented with sodium bicarbonate 25 mM) it was greater than 32 µg/mL; in the assay on E. coli (Ec) (E. coli, CAMHB supplemented with sodium bicarbonate 25 mM), less than 8 µg/mL; in the assay with E. faecalis (Ef) (E. faecalis, CAMHB supplemented with sodium bicarbonate 25 mM), less than 8 µg/mL; in the assay with S. aureus (Sa) (S. aureus, CAMHB supplemented with sodium bicarbonate 25 mM) it was less than 8 µg/mL. Also, the figures for the IC50 (in the assay with E. coli S30 extract; in assay [1]) were less than 500 nM and no less than 1000 nM, respectively.

Turning to `CC(C)(N)C(=O)N1CCN(C(=O)Nc2ccn([C@H]3CC[C@H](CN4CC(N)C4)CC3)c(=O)n2)CC1` [Compound 52, trans-4-(2-Amino-2-methylpropanoyl)-N-(1-(4-((3-aminoazetidin-1-yl)methyl)cyclohexyl)-2-oxo-1,2-dihydropyrimidin-4-yl)piperazine-1-carboxamide hydrochloride salt], the MIC in the assay on P. aeruginosa (Pa) was greater than 32 µg/mL; with A. baumannii (Ab), greater than 32 µg/mL; in the assay on E. coli (Ec) it was less than 8 µg/mL; in the assay on E. faecalis (Ef) it was greater than 32 µg/mL; in the assay with S. aureus (Sa), 8 to 32 µg/mL. In addition, the IC50 with E. coli S30 extract is 500 to 1000 nM; in assay [1] it was no less than 1000 nM.

For `CCN(C[C@H]1CC[C@H](n2ccc(NC(=O)N3CCN(C(=O)C(C)(C)N)CC3)nc2=O)CC1)[C@H]1CC[C@H](N)CC1` [Compound 21, 4-(2-Amino-2-methylpropanoyl)-N-(1-(trans-4-(((trans-4-aminocyclohexyl)(ethyl)amino)methyl)cyclohexyl)-2-oxo-1,2-dihydropyrimidin-4-yl)piperazine-1-carboxamide hydrochloride salt], the MIC in the assay with P. aeruginosa (Pa) is 8 to 32 µg/mL; in the assay on A. baumannii (Ab), 8 to 32 µg/mL; in the assay on E. coli (Ec), less than 8 µg/mL; with E. faecalis (Ef), less than 8 µg/mL; in the assay with S. aureus (Sa), less than 8 µg/mL. For the same compound, the values for the IC50 (in the assay with E. coli S30 extract; in assay [1]) were less than 500 nM and no less than 1000 nM, respectively.

Turning to `CC(C)(N)C(=O)N1CCN(C(=O)Nc2ccn(C3CCC(CN[C@H]4CC[C@H](N)C4)CC3)c(=O)n2)CC1` (stereo partly drawn) [Compound 13, 4-(2-Amino-2-methylpropanoyl)-N-(1-(4-((((1S,3S)-3-aminocyclopentyl)amino)methyl)cyclohexyl)-2-oxo-1,2-dihydropyrimidin-4-yl)piperazine-1-carboxamide hydrochloride salt], the MIC in the assay on P. aeruginosa (Pa) is greater than 32 µg/mL; with A. baumannii (Ab), greater than 32 µg/mL; with E. coli (Ec), less than 8 µg/mL; in the assay with E. faecalis (Ef), 8 to 32 µg/mL; with S. aureus (Sa) it was less than 8 µg/mL. The figures for the IC50 (in the assay with E. coli S30 extract; in assay [1]) were less than 500 nM and no less than 1000 nM, respectively.
